PMC11154582, “Modeling the Blood-Brain Barrier Permeability of Potential Heterocyclic Drugs via Biomimetic IAM Chromatography Technique Combined with QSAR Methodology” (Molecules, 2024)

Assay: Biomimetic IAM chromatography (log kw, IAM)
Assay type: physicochemical
Details: IAM.PC.DD2 column, buffered acetonitrile, pH 7.4, 25 °C, extrapolated to buffer
Experimental: High performance liquid chromatography (HPLC) measurements were performed on a Shimadzu Vp liquid chromatographic system (Shimadzu, Izabelin, Poland). This instrument was equipped with LC 10AT pump, SPD 10A ultraviolet-visible detector, SCL 10A system controller, CTO-10 AS chromatographic oven, and a Rheodyne injector valve with a 20 μL loop. As the stationary phase Regis IAM.PC.DD2 column, 100 × 4.6 mm i.d., 10 μm (Morton Grove, IL, USA) was applied.
Buffered acetonitrile mixtures were used as effluents. Acetonitrile concentration, expressed as a volume fraction, was varied within a range from 0.2 to 0.5, with a constant step of 0.1. The buffer was prepared from 0.01 mol L^−1 solutions of Na2HPO4 and citric acid, and a pH value of 7.4 was fixed before mixing with an organic modifier. The flow rate was 1.3 mL min^−1. Each compound sample was dissolved in acetonitrile to obtain a concentration of 0.005 mg mL^−1, and each solute peak was detected under ultraviolet light at a wavelength of λmax = 254 nm. Each measurement was performed at a constant temperature (25 °C) at least three times. The dead time values were measured from sodium chloride peaks.
From among 126 heterocyclic compounds evaluated in this work (Table 1), 89 structures have been investigated previously on the IAM column: these are molecules from groups III, IV, V, VI, VII, VIII, IX, XI, XIII, and XV [21, 22, 23]. The remaining ones, i.e., 37 compounds from groups I, II, X, XII and XIV, were tested in this study for the first time using the biomimetic IAM chromatographic technique. To calculate the log kw values (i.e., the logarithms of retention parameter in the buffer as the mobile phase), the retention parameters, logs k (k = (tr − t0)/t0; where tr is the solute retention time, and t0 is a dead time), that were measured for all tested compounds, were used according to Soczewiński-Wachtmeister’s equation (Equation (5)): (5) log k=logtr−t0/t0=log kw−sφ where φ denotes the volume fraction of acetonitrile as organic modifier in the mobile phase, and kw means the retention parameter corresponding to buffer as the mobile phase. The log kw values were evaluated as linear regression coefficients (Table 2).

log kw, IAM	SMILES
0.10	c1ccc(N2CCn3cnnc32)cc1 [Compound 1]
0.41	Cc1ccc(N2CCn3cnnc32)cc1 [Compound 2]
0.10	COc1ccc(N2CCn3cnnc32)cc1 [Compound 3]
0.64	Clc1cccc(N2CCn3cnnc32)c1 [Compound 4]
1.18	Clc1ccc(N2CCn3cnnc32)cc1Cl [Compound 5]
0.11	c1ccc(OCc2nnc3n2CCN3c2ccccc2)cc1 [Compound 6]
0.06	COc1ccc(N2CCn3c(COc4ccc(Cl)cc4)nnc32)cc1 [Compound 7]
1.86	Clc1ccc(OCc2nnc3n2CCN3c2ccc(Cl)cc2)cc1 [Compound 10]
2.14	Cc1cc(Cl)ccc1OCc1nnc2n1CCN2c1ccc(Cl)cc1 [Compound 11]
2.25	Clc1ccc(N2CCn3c(COc4ccc(Cl)cc4Cl)nnc32)cc1 [Compound 12]
2.55	Clc1ccc(N2CCn3c(COc4cc(Cl)c(Cl)cc4Cl)nnc32)cc1 [Compound 14]
0.40	NNC(=O)Cc1nnc2n(c1=O)CCN2c1ccccc1 [Compound 56]
0.13	Cc1ccc(N2CCn3c2nnc(CC(=O)NN)c3=O)cc1 [Compound 57]
0.06	CCOc1ccc(N2CCn3c2nnc(CC(=O)NN)c3=O)cc1 [Compound 59]
0.32	NNC(=O)Cc1nnc2n(c1=O)CCN2c1ccc(Cl)cc1 [Compound 60]
1.64	O=c1c(-c2cccs2)nnc2n1CCN2c1ccccc1 [Compound 72]
1.54	Cc1ccccc1N1CCn2c1nnc(-c1cccs1)c2=O [Compound 73]
1.94	Cc1ccc(N2CCn3c2nnc(-c2cccs2)c3=O)cc1 [Compound 74]
1.17	Cc1cccc(N2CCn3c2nnc(-c2cccs2)c3=O)c1C [Compound 75]
1.50	COc1ccccc1N1CCn2c1nnc(-c1cccs1)c2=O [Compound 76]
1.75	O=c1c(-c2cccs2)nnc2n1CCN2c1ccccc1Cl [Compound 77]

Assay: not given
Details: IAM column; ref [21]; cited from earlier work

SMILES	log kw, IAM
Cc1ccc(N2CCn3c2nnc(C(=O)NN)c3=O)cc1 [Compound 52]	0.16

Same assay, conditions: IAM column; ref [22]; cited from earlier work

SMILES	log kw, IAM
Cc1ccc(N2CCn3c2nnc(C(F)(F)F)c3=O)cc1 [Compound 17]	1.25
O=c1c(C(F)(F)F)nnc2n1CCN2c1cccc(Cl)c1 [Compound 20]	1.66
O=c1c(C(F)(F)F)nnc2n1CCN2c1ccc(Cl)cc1 [Compound 21]	1.58
O=c1c(C(F)(F)F)nnc2n1CCN2c1ccc(Cl)c(Cl)c1 [Compound 22]	2.29
CC(C)c1nnc2n(c1=O)CCN2c1ccccc1 [Compound 29]	0.76
Cc1ccc(N2CCn3c2nnc(C(C)C)c3=O)cc1 [Compound 30]	1.05
CC(C)c1nnc2n(c1=O)CCN2c1cccc(Cl)c1 [Compound 32]	1.49
CCOC(=O)c1nnc2n(c1=O)CCN2c1ccccc1 [Compound 35]	0.48
CCOC(=O)c1nnc2n(c1=O)CCN2c1ccc(C)cc1 [Compound 36]	1.93
CCOC(=O)c1nnc2n(c1=O)CCN2c1ccc(Cl)cc1 [Compound 38]	1.12

Same assay, conditions: IAM column; ref [23]; cited from earlier work

SMILES	log kw, IAM
CCc1nnc2n(c1=O)CCN2c1ccccc1 [Compound 23]	0.55
CCc1nnc2n(c1=O)CCN2c1ccc(C)cc1 [Compound 24]	1.00
CCc1nnc2n(c1=O)CCN2c1ccccc1Cl [Compound 25]	0.80
CCc1nnc2n(c1=O)CCN2c1cccc(Cl)c1 [Compound 26]	0.84
CCc1nnc2n(c1=O)CCN2c1ccc(Cl)cc1 [Compound 27]	1.24
COC(=O)Cc1nnc2n(c1=O)CCN2c1ccccc1 [Compound 40]	0.81
CCOc1ccc(N2CCn3c2nnc(CC(=O)OC)c3=O)cc1 [Compound 43]	1.42
COC(=O)Cc1nnc2n(c1=O)CCN2c1ccc(Cl)cc1 [Compound 44]	1.82
CCOC(=O)Cc1nnc2n(c1=O)CCN2c1ccc(C)cc1 [Compound 46]	1.70
CCOC(=O)Cc1nnc2n(c1=O)CCN2c1ccccc1OC [Compound 47]	0.91
CCOC(=O)Cc1nnc2n(c1=O)CCN2c1ccc(Cl)cc1 [Compound 49]	2.11
O=c1c(-c2ccco2)nnc2n1CCN2c1ccccc1 [Compound 61]	1.29
Cc1ccccc1N1CCn2c1nnc(-c1ccco1)c2=O [Compound 62]	0.96
Cc1ccc(N2CCn3c2nnc(-c2ccco2)c3=O)cc1 [Compound 63]	1.69
Cc1cccc(N2CCn3c2nnc(-c2ccco2)c3=O)c1C [Compound 64]	1.42
COc1ccccc1N1CCn2c1nnc(-c1ccco1)c2=O [Compound 65]	1.11
COc1ccc(N2CCn3c2nnc(-c2ccco2)c3=O)cc1 [Compound 66]	1.19
O=c1c(-c2ccco2)nnc2n1CCN2c1ccccc1Cl [Compound 67]	1.27
O=c1c(-c2ccco2)nnc2n1CCN2c1cccc(Cl)c1 [Compound 68]	2.08
O=c1c(-c2ccco2)nnc2n1CCN2c1ccc(Cl)cc1 [Compound 69]	2.02
O=c1c(-c2ccco2)nnc2n1CCN2c1ccc(Cl)c(Cl)c1 [Compound 70]	3.23
O=c1c(-c2ccco2)nnc2n1CCN2c1c(Cl)cccc1Cl [Compound 71]	1.70
O=c1c(-c2ccccc2)nnc2n1CCN2c1ccccc1 [Compound 81]	1.91
Cc1ccccc1N1CCn2c1nnc(-c1ccccc1)c2=O [Compound 82]	1.53
Cc1ccc(N2CCn3c2nnc(-c2ccccc2)c3=O)cc1 [Compound 84]	2.22

SMILES	log kw, IAM
COc1ccccc1N1CCn2c1nnc(-c1ccccc1)c2=O [Compound 85]	1.47
CCOc1ccc(N2CCn3c2nnc(-c2ccccc2)c3=O)cc1 [Compound 87]	2.14
Cc1cccc(N2CCn3c2nnc(-c2ccccc2)c3=O)c1C [Compound 88]	1.85
O=c1c(-c2ccccc2)nnc2n1CCN2c1cccc(Cl)c1 [Compound 90]	2.64
O=c1c(Cc2ccccc2)nnc2n1CCN2c1ccccc1 [Compound 102]	3.26
O=c1c(Cc2cccc(Cl)c2)nnc2n1CCN2c1ccccc1 [Compound 104]	2.48
O=c1c(Cc2ccc(Cl)cc2)nnc2n1CCN2c1ccccc1 [Compound 105]	2.39
Cc1ccc(N2CCn3c2nnc(Cc2ccccc2)c3=O)cc1 [Compound 106]	2.15
Cc1ccc(Cc2nnc3n(c2=O)CCN3c2ccc(C)cc2)cc1 [Compound 107]	2.51
Cc1ccc(N2CCn3c2nnc(Cc2cccc(C)c2)c3=O)cc1 [Compound 108]	2.59
Cc1ccc(N2CCn3c2nnc(Cc2cccc(Cl)c2)c3=O)cc1 [Compound 110]	2.78
Cc1ccc(N2CCn3c2nnc(Cc2ccc(Cl)cc2)c3=O)cc1 [Compound 111]	2.81
CCOc1ccc(N2CCn3c2nnc(Cc2ccc(C)cc2)c3=O)cc1 [Compound 113]	2.43
CCOc1ccc(N2CCn3c2nnc(Cc2cccc(Cl)c2)c3=O)cc1 [Compound 115]	2.73
Cc1ccccc1N1CCn2c1nnc(Cc1ccccc1Cl)c2=O [Compound 117]	2.02
O=c1c(Cc2ccccc2)nnc2n1CCN2c1ccc(Cl)cc1 [Compound 118]	2.52
O=c1c(Cc2ccccc2Cl)nnc2n1CCN2c1ccc(Cl)cc1 [Compound 119]	3.22
O=c1c(Cc2cccc(Cl)c2)nnc2n1CCN2c1ccc(Cl)cc1 [Compound 120]	3.15
O=c1c(Cc2ccc(Cl)cc2)nnc2n1CCN2c1ccc(Cl)cc1 [Compound 121]	3.17
O=c1c(CCc2ccccc2)nnc2n1CCN2c1ccccc1 [Compound 122]	2.07
Cc1ccc(N2CCn3c2nnc(CCc2ccccc2)c3=O)cc1 [Compound 123]	2.41
O=c1c(CCc2ccccc2)nnc2n1CCN2c1ccccc1Cl [Compound 124]	1.81
O=c1c(CCc2ccccc2)nnc2n1CCN2c1ccc(Cl)cc1 [Compound 125]	2.68
O=c1c(CCc2ccccc2)nnc2n1CCN2c1ccc(Cl)c(Cl)c1 [Compound 126]	3.40
